Assay [1] is described as follows: Antiproliferative activity against human HT-29 cells after 48 hrs by SRB assay. Format: functional, cell-based. Conditions: HT-29, 48 h. For orientation: In SRB staining, fixed cells bind dye roughly in proportion to their protein.
Assay [2] can be described thus: Antiproliferative activity against human ES2 cells after 48 hrs by SRB assay. In kind it is functional, cell-based. Conditions: ES-2, 48 h.
Assay [3] can be described thus: Antiproliferative activity against human PC3M cells after 48 hrs by SRB assay. In kind it is functional, cell-based. Conditions: PC-3M.
Assay [4] can be described thus: Selectivity index, ratio of IC50 for HAF cells to IC50 for human ES2 cells. Format: functional.
Assay [5] in a line: Antiproliferative activity against HAF cells after 48 hrs by SRB assay. Format: cell-based. Particulars: Homo sapiens.
The nature of assay [6]: Selectivity index, ratio of IC50 for HAF cells to IC50 for human HT-29 cells. Format: functional.
Assay [7] in a line: Selectivity index, ratio of IC50 for HAF cells to IC50 for human PC3M cells. Format: functional.

Each structure is given as a SMILES string. Where only a bound is given, the exact number is not on record here.

As a reminder, the IC50 is the point on the concentration scale where inhibition reaches its midpoint. Lower therefore signals higher potency. Consider `C=C(C)C1CC[C@H]2[C@@H]3CC[C@H]([C@H](C)CCC(=O)O)[C@@]3(C)CC[C@@H]2[C@@]1(C)CCC(=O)O` (some centres undefined), for which the IC50 in assay [1], in assay [2] and in assay [3] was over 80 µM in each case.
With `C=C(C)C1CC[C@H]2[C@@H]3CC[C@H]([C@H](C)CCC(=O)N4CCOCC4)[C@@]3(C)CC[C@@H]2[C@@]1(C)CCC(=O)N1CCOCC1` (some centres undefined), the half-inhibitory concentration (IC50) was 16.6 µM in assay [1], 29.6 µM in assay [2] and 22.5 µM in assay [3].
As to `C#CCNC(=O)CC[C@@H](C)[C@H]1CC[C@H]2[C@@H]3CCC(C(=C)C)[C@](C)(CCC(=O)NCC#C)[C@H]3CC[C@]12C` (some centres undefined), the IC50 in assay [1] was 85.5 µM; in assay [2], 3.11 µM; in assay [3], 50.4 µM; in assay [5], 61.9 µM. For the same compound, in assay [4], the “Ratio IC50” value is recorded as 20.
For the compound `C=C(C)C1CC[C@H]2[C@@H]3CC[C@H]([C@H](C)CCC(=O)N4CCN(CC)CC4)[C@@]3(C)CC[C@@H]2[C@@]1(C)CCC(=O)N1CCN(CC)CC1` (some centres undefined), the values for the IC50 in assay [1], in assay [2] and in assay [3] were 6.19 µM, 12.5 µM and 8.47 µM, respectively.
In the case of `C=C(C)C1CC[C@H]2[C@@H]3CC[C@H]([C@H](C)CCC(=O)N4CCN(C)CC4)[C@@]3(C)CC[C@@H]2[C@@]1(C)CCC(=O)N1CCN(C)CC1` (some centres undefined), the IC50 in assay [1] came to 1.93 µM; in assay [2], 3.63 µM; in assay [3], 5.08 µM; in assay [5], 15.5 µM. The “Ratio IC50” value is on record as 8 in assay [6], 4.3 in assay [4] and 3 in assay [7].
Consider `C[C@H](CCC(=O)O)[C@H]1CC[C@H]2[C@@H]3CCC(C(C)(C)O)[C@](C)(CCC(=O)O)[C@H]3CC[C@]12C` (some centres undefined), for which the IC50 in assay [1], in assay [2] and in assay [3] was over 80 µM throughout.
For `C=C(C)C1CC[C@H]2[C@@H]3CC[C@H]([C@H](C)CCC(=O)N4CCN(c5ccccc5)CC4)[C@@]3(C)CC[C@@H]2[C@@]1(C)CCC(=O)N1CCN(c2ccccc2)CC1` (some centres undefined), the IC50 in assay [1], in assay [2] and in assay [3] was over 80 µM in each case.
On to `C=C(C)C1CC[C@H]2[C@@H]3CC[C@H]([C@H](C)CCC(=O)NC(C)C)[C@@]3(C)CC[C@@H]2[C@@]1(C)CCC(=O)NC(C)C` (some centres undefined), for which the IC50 in assay [1] is over 80 µM; in assay [2] it was over 80 µM; in assay [3] it was 7.41 µM; in assay [5], over 50 µM. The “Ratio IC50” value in assay [7] is given as over 6.7.
Turning to `C=C(C)C1CC[C@H]2[C@@H]3CC[C@H]([C@H](C)CCC(=O)NCc4ccccc4)[C@@]3(C)CC[C@@H]2[C@@]1(C)CCC(=O)NCc1ccccc1` (some centres undefined), the IC50 was 13 µM in assay [1], over 80 µM in assay [2], 13.6 µM in assay [3] and over 50 µM in assay [5]. The “Ratio IC50” value in assay [6] is given as over 3.9; in assay [7], over 3.7.
As to `C=C(C)C1CC[C@H]2[C@@H]3CC[C@H]([C@H](C)CCC(=O)N4CCN(c5ccccc5F)CC4)[C@@]3(C)CC[C@@H]2[C@@]1(C)CCC(=O)N1CCN(c2ccccc2F)CC1` (some centres undefined), the IC50 in assay [1], in assay [2] and in assay [3] was over 80 µM each time.
As to `C[C@H](CCC(=O)O)[C@H]1CC[C@H]2[C@@H]3C[C@H](O)[C@@H]4C[C@H](O)CC[C@]4(C)[C@H]3CC[C@]12C` [HYODEOXYCHOLIC_ACID], the IC50 in assay [1], in assay [2] and in assay [3] was over 80 µM each time.
For `C[C@H](CCC(=O)O)[C@H]1CC[C@H]2[C@@H]3CC[C@@H]4C[C@H](O)CC[C@]4(C)[C@H]3C[C@H](O)[C@]12C` [DEOXYCHOLIC ACID], the IC50 in assay [1], in assay [2] and in assay [3] was over 80 µM in each case.
As to `C=C(C)C1CC[C@H]2[C@@H]3CC[C@H]([C@H](C)CCC(N)=O)[C@@]3(C)CC[C@@H]2[C@@]1(C)CCC(N)=O` (some centres undefined), the IC50 was 36.7 µM in assay [1], 36.9 µM in assay [2] and 39.2 µM in assay [3].
The matching figures for `CC(C)C1CC[C@H]2[C@@H]3CC[C@H]([C@H](C)CCC(=O)N4CCN(C)CC4)[C@@]3(C)CC[C@@H]2[C@@]1(C)CCC(=O)N1CCN(C)CC1` (some centres undefined): 13.8 µM, 8.2 µM and 12.7 µM.
On to `C=C(C)C1CC[C@H]2[C@@H]3CC[C@H]([C@H](C)CCCN4CCN(C)CC4)[C@@]3(C)CC[C@@H]2[C@@]1(C)CCCN1CCN(C)CC1` (some centres undefined), for which the IC50 in assay [1], in assay [2] and in assay [3] was over 80 µM each time.
With `C=C(C)C1CC[C@H]2[C@@H]3CC[C@H]([C@H](C)CCC(=O)n4cccn4)[C@@]3(C)CC[C@@H]2[C@@]1(C)CCC(=O)n1cccn1` (some centres undefined), the IC50 in assay [1], in assay [2] and in assay [3] was over 80 µM in each case.
As for `C=C(C)C1CC[C@H]2[C@@H]3CC[C@H]([C@H](C)CCC(=O)N4CCN(C5CCCCC5)CC4)[C@@]3(C)CC[C@@H]2[C@@]1(C)CCC(=O)N1CCN(C2CCCCC2)CC1` (some centres undefined), the IC50 turned out to be 3.17 µM in assay [1], 17 µM in assay [2] and 12 µM in assay [3].
With `C=C(C)C1CC[C@H]2[C@@H]3CC[C@H]([C@H](C)CCC(=O)N(CC)CC)[C@@]3(C)CC[C@@H]2[C@@]1(C)CCC(=O)N(CC)CC` (some centres undefined), the 50% inhibitory concentration (IC50) in assay [1] turned out to be 6.88 µM; in assay [2], 14.2 µM; in assay [3], 11.1 µM; in assay [5], 56.2 µM. Besides, the “Ratio IC50” value in assay [6] is 8.1; in assay [4], 4; in assay [7] it was 5.1.
Regarding `C=C(C)C1CC[C@H]2[C@@H]3CC[C@H]([C@H](C)CCC(=O)Nc4ccc(F)cc4)[C@@]3(C)CC[C@@H]2[C@@]1(C)CCC(=O)Nc1ccc(F)cc1` (some centres undefined), the IC50 in assay [1], in assay [2] and in assay [3] was over 80 µM in each case.
With `C=C(C)C1CC[C@H]2[C@@H]3CC[C@H]([C@H](C)CCC(=O)OC)[C@@]3(C)CC[C@@H]2[C@@]1(C)CCC(=O)N1CCN(C)CC1` (some centres undefined), the values for the IC50 in assay [1], in assay [2] and in assay [3] were 13.7 µM, 31.7 µM and 41.8 µM, respectively.
The matching figures for `C=C(C)C1CC[C@H]2[C@@H]3CC[C@H]([C@H](C)CCC(=O)NC4CC4)[C@@]3(C)CC[C@@H]2[C@@]1(C)CCC(=O)NC1CC1` (some centres undefined): over 80 µM, over 80 µM and 17 µM.
Consider `C=C(C)C1CC[C@H]2[C@@H]3CC[C@H]([C@H](C)CCC(=O)N4CCN(C(C)C)CC4)[C@@]3(C)CC[C@@H]2[C@@]1(C)CCC(=O)N1CCN(C(C)C)CC1` (some centres undefined), for which the IC50 in assay [1] was 9.91 µM; in assay [2], 6.68 µM; in assay [3], 1.66 µM; in assay [5] it was 27 µM. The “Ratio IC50” value in assay [6] turned out to be 2.7; in assay [4] it was 4; in assay [7], 16.3.
Take `C=C(C)C1CC[C@H]2[C@@H]3CC[C@H]([C@H](C)CCC(=O)N4CCCC4)[C@@]3(C)CC[C@@H]2[C@@]1(C)CCC(=O)N1CCCC1` (some centres undefined): the IC50 turned out to be 23.7 µM in assay [1], 9.25 µM in assay [2] and 32.4 µM in assay [3].
On the same counts, the results for `C=C(C)C1CC[C@H]2[C@@H]3CC[C@H]([C@H](C)CCC(=O)O)[C@@]3(C)CC[C@@H]2[C@@]1(C)CCC(=O)N1CCN(C)CC1` (some centres undefined) are over 80 µM, 53.9 µM and over 80 µM.
On the same counts, the results for `C[C@H](CCC(=O)O)[C@H]1CC[C@H]2[C@@H]3[C@H](O)C[C@@H]4C[C@H](O)CC[C@]4(C)[C@H]3CC[C@]12C` [CHENODIOL] are over 80 µM, over 80 µM and over 80 µM.

For the origin of these results see ChEMBL document CHEMBL3867430, “Novel 3,4-seco bile acid diamides as selective anticancer proliferation and migration agents” (Eur J Med Chem, 2016).
